Measurements: patent publication US20080009418A1, “Selective Inhibitors” (Alchemia LTD., priority 2004, published 2008)

How the values were obtained:
Human melanocortin (MC5) = molecular target: T1, Human melanocortin (MC5) (Homo sapiens, UniProt P33032); assay: Radioligand binding, human melanocortin MC5 membranes, FlashPlate, [125I]-NDP-αMSH; conditions: compound at 10 μM, [125I]-NDP-αMSH
T1 construct: purchased Perkin Elmer Biosignal
How it was run: (§1)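 Cloned human receptor membranes were coated onto FlashPlate wells and incubated with radioligand and compound (added from a 0.5 mM DMSO daughter plate) for 1 hour at room temperature in the dark. Scintillation counting gave percent inhibition, with DMSO defining total and reference ligand defining non-specific binding.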

Human neurokinin (NK1) = molecular target: T2, Human neurokinin (NK1) (Homo sapiens, UniProt P25103); assay: Radioligand binding, human neurokinin NK1 membranes, filtration, [125I]-Substance P; conditions: compound at 10 μM, [125I]-Substance P
T2 construct: purchased Perkin Elmer Biosignal
How it was run: (§2)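 Percent inhibition of radioligand binding measured on recombinant human membranes: NK1 with [125I]-Substance P, KOP with [3H]-Diprenorphine. Incubation 1 h at room temperature, then harvest onto 0.3% PEI-soaked filters, cold Tris-HCl pH 7.4 washes and scintillation counting; non-specific binding from reference ligand wells.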

Human μ-opioid (MOP) = molecular target: T3, Human μ-opioid (MOP) (Homo sapiens, UniProt P35372); assay: Radioligand binding, human μ-opioid (MOP) membranes, FlashPlate, [3H]-Naloxone; conditions: compound at 10 μM, [3H]-Naloxone
T3 construct: purchased Perkin Elmer Biosignal
How it was run: as §1

[1] = molecular target: T4, Human melanin-concentrating hormone (MCH1) (Homo sapiens, UniProt Q99705); assay: Radioligand binding, human melanin-concentrating hormone MCH1 membranes, FlashPlate, [125I]-S36057; conditions: compound at 10 μM; for A6: inhibition of radioligand binding, human melanin-concentrating hormone (MCH1): [125I]-S36057
T4 construct: purchased Perkin Elmer Biosignal
How it was run: as §1

Human Melanocortin (MC4) = molecular target: T5, Human Melanocortin (MC4) (Homo sapiens, UniProt P32245); assay: Radioligand binding, human melanocortin MC4 membranes, FlashPlate, [125I]-NDP-αMSH; conditions: compound at 10 μM, [125I]-NDP-αMSH
T5 construct: purchased Perkin Elmer Biosignal
How it was run: as §1

Mouse urotensin (mUR2) = molecular target: T6, Mouse urotensin (mUR2) (Mus musculus, UniProt Q8VIH9); assay: Radioligand binding, mouse urotensin mUR2 membranes, FlashPlate, [125I]-Urotensin II; conditions: compound at 10 μM, [125I]-Urotensin II
T6 construct: purchased Perkin Elmer Biosignal
T6 sequence (Q8VIH9 1-385): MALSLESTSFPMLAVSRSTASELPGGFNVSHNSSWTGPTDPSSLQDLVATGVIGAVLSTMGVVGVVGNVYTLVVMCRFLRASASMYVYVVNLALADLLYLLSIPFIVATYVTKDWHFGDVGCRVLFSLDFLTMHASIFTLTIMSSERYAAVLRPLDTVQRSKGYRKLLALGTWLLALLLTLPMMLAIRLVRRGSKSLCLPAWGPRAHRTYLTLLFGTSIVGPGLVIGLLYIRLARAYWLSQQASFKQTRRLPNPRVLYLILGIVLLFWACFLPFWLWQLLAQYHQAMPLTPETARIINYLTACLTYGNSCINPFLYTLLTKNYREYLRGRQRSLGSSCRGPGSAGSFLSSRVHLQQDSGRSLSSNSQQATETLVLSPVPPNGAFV
How it was run: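 Cloned mouse urotensin (mUR2) receptor membranes from Perkin Elmer Biosignal were immobilized in FlashPlate microplates using a proprietary coating. Each well got 19.5 μl buffer, then 0.5 μl of DMSO, reference ligand, or compound. Adding 5 μl of [125I]-Urotensin II, diluted to 5× final concentration in binding buffer, started binding. Plates were sealed with TopSeal-A and incubated 1 hour at room temperature in the dark. Wells were counted for 30 seconds each on a TopCount after a 60-second delay, and percentage inhibition was calculated.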

[2] = molecular target: T7, Human neuropeptide Y (NPY-Y1) (Homo sapiens, UniProt P25929); assay: Radioligand binding, human neuropeptide Y NPY-Y1 membranes, FlashPlate, [125I]-PYY; conditions: compound at 10 μM, [125I]-PYY
T7 construct: purchased Perkin Elmer Biosignal
T7 sequence (P25929 1-384): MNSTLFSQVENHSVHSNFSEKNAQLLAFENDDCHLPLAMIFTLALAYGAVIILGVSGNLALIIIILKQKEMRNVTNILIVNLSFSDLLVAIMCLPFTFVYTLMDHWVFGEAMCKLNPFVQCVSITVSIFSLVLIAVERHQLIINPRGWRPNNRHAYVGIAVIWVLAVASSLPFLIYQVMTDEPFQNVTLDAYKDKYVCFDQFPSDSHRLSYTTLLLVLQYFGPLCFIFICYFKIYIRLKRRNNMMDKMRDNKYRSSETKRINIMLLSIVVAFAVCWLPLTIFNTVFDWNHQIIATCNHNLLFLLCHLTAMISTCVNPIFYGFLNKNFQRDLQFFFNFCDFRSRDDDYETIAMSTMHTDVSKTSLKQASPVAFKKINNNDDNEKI
How it was run: as §1

Human δ-opioid (DOP) = molecular target: T8, Human δ-opioid (DOP) (Homo sapiens, UniProt P41143); assay: Radioligand binding, human δ-opioid (DOP) membranes, FlashPlate, [3H]-Bremazocine; conditions: compound at 10 μM, [3H]-Bremazocine
T8 construct: purchased Perkin Elmer Biosignal
How it was run: as §1

Human κ-Opioid (KOP) = molecular target: T9, Human κ-Opioid (KOP) (Homo sapiens, UniProt P41145); assay: Radioligand binding, human κ-opioid (KOP) membranes, filtration, [3H]-Diprenorphine; conditions: compound at 10 μM, [3H]-Diprenorphine; for A2: inhibition of radioligand binding, human κ-opioid (KOP): 10 µM
T9 construct: purchased Perkin Elmer Biosignal
How it was run: as §2

Human Melanocortin (MC3) = molecular target: T10, Human Melanocortin (MC3) (Homo sapiens, UniProt P41968); assay: Radioligand binding, human melanocortin MC3 membranes, FlashPlate, [125I]-NDP-αMSH; conditions: compound at 10 μM, [125I]-NDP-αMSH; for A3: inhibition of radioligand binding, human melanocortin (MC3): 10 µM
T10 construct: purchased Perkin Elmer Biosignal
How it was run: as §1

Human opioid (ORL1) = molecular target: T11, Human opioid (ORL1) (Homo sapiens, UniProt P41146); assay: Radioligand binding, human opioid ORL1 membranes, FlashPlate, [125I]-Nociceptin; conditions: compound at 10 μM, [125I]-Nociceptin
T11 construct: purchased Perkin Elmer Biosignal
How it was run: as §1

T2 sequence (P25103 whole entry): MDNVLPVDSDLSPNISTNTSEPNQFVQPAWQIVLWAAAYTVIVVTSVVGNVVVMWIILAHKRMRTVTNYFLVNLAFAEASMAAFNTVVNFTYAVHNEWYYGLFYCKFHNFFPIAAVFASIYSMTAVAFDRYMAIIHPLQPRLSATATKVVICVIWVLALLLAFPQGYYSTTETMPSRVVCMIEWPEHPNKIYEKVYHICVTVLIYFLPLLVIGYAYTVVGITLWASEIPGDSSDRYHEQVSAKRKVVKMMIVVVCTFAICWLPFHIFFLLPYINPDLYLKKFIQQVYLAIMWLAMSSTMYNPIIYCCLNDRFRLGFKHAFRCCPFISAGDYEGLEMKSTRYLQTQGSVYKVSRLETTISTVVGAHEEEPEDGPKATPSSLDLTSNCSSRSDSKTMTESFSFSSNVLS
T10 sequence (P41968 whole entry): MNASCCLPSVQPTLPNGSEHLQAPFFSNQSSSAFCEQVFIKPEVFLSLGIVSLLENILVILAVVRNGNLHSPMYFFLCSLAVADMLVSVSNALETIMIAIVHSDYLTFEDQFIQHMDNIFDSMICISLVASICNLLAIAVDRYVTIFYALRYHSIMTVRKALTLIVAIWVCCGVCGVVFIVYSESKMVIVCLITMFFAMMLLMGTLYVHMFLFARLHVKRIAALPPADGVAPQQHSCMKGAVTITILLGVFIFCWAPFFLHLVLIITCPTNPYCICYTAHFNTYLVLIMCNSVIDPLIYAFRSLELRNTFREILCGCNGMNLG
T9 sequence (P41145 whole entry): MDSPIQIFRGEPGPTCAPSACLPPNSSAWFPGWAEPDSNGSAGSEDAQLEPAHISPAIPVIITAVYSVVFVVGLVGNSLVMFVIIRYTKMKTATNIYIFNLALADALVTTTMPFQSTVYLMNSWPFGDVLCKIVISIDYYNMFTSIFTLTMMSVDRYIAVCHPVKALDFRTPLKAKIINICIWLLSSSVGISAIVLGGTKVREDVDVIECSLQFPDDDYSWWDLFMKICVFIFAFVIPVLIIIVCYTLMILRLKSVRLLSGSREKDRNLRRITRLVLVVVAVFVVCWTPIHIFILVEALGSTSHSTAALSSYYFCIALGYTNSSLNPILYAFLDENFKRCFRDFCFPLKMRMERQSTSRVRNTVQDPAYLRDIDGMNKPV
T4 sequence (Q99705 whole entry): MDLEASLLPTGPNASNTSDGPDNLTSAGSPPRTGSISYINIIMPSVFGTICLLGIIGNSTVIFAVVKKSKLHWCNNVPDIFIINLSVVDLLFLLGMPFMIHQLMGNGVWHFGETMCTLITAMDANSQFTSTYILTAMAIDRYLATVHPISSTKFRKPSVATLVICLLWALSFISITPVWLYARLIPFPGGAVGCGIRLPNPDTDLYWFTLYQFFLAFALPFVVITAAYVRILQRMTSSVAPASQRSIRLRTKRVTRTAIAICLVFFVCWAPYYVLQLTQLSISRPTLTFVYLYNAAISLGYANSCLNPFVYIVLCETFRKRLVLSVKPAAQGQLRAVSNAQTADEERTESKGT
T3 sequence (P35372 whole entry): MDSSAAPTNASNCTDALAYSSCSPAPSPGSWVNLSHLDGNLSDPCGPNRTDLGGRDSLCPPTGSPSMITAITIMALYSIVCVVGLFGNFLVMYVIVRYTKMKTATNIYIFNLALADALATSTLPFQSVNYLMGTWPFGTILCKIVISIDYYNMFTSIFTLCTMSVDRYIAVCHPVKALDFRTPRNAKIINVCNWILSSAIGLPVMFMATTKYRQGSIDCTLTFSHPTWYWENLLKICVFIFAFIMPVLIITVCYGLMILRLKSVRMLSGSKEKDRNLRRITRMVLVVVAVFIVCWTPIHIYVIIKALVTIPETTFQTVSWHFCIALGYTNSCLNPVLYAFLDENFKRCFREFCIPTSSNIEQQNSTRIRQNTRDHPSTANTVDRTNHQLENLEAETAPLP
T11 sequence (P41146 whole entry): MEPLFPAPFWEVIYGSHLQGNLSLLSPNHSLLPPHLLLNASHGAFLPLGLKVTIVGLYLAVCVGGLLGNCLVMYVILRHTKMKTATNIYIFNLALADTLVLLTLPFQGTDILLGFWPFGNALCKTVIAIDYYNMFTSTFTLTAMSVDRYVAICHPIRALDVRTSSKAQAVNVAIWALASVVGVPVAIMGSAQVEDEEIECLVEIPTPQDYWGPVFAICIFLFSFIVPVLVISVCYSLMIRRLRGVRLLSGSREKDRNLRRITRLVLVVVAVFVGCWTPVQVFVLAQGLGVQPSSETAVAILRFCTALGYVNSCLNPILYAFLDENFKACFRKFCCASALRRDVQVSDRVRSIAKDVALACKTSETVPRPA
T8 sequence (P41143 whole entry): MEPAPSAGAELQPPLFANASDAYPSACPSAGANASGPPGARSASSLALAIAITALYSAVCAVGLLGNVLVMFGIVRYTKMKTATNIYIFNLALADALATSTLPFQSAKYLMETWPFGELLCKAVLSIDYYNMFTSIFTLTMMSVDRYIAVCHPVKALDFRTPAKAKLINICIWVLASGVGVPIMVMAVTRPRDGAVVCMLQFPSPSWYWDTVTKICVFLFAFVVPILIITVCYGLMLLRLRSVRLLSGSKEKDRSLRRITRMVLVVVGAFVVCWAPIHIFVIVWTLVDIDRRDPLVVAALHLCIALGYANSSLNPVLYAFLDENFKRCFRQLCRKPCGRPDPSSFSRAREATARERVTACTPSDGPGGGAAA
T1 sequence (P33032 whole entry): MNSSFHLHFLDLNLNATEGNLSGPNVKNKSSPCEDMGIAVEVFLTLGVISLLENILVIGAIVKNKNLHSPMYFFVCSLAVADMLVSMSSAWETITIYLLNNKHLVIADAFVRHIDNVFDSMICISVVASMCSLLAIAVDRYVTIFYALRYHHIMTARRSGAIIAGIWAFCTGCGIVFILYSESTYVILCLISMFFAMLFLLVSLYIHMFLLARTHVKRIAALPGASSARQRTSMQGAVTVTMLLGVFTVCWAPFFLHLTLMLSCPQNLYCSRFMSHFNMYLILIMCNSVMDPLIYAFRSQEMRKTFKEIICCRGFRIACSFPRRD
T5 sequence (P32245 whole entry): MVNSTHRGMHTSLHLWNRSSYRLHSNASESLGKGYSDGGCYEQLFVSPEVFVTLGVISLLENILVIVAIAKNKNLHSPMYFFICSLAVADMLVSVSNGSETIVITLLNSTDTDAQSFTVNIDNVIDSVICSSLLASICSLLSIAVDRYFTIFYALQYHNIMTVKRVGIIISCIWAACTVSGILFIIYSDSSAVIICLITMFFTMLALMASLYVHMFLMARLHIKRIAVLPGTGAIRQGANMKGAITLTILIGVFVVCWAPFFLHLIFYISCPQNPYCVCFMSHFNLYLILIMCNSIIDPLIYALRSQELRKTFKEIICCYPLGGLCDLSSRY

## NCCC(=O)NC1C(OCc2ccc(Cl)cc2)OC(COCc2ccccc2)C(O)C1OCc1ccc(Cl)cc1 (single isomer, unassigned) [compound 473]
Human melanocortin (MC5); human MC5 membranes, 10 µM
  A5: inhibition of radioligand binding: + (“+” indicates greater than 50% inhibition at 10 μM)
Human neurokinin (NK1); human NK1 membranes
  A8: inhibition of radioligand binding: + (“+” indicates greater than 50% inhibition at 10 μM)
Human μ-opioid (MOP); human MOP membranes, 10 µM
  A7: inhibition of radioligand binding: + (“+” indicates greater than 50% inhibition at 10 μM)
[1]; [125I]-S36057, human MCH1 membranes, 10 µM
  A6: inhibition of radioligand binding: + (“+” indicates greater than 50% inhibition at 10 μM)
Human Melanocortin (MC4); human MC4 membranes
  A4: inhibition of radioligand binding: − (“−” indicates less than 50% inhibition at 10 μM)
Mouse urotensin (mUR2); mouse mUR2 membranes
  A11: inhibition of radioligand binding: − (“−” indicates less than 50% inhibition at 10 μM)
[2]; human NPY-Y1 membranes
  A9: inhibition of radioligand binding: − (“−” indicates less than 50% inhibition at 10 μM)
Human δ-opioid (DOP); human DOP membranes
  A1: inhibition of radioligand binding: − (“−” indicates less than 50% inhibition at 10 μM)
Human κ-Opioid (KOP); human KOP membranes
  A2: inhibition of radioligand binding: − (“−” indicates less than 50% inhibition at 10 μM)
Human Melanocortin (MC3); human MC3 membranes
  A3: inhibition of radioligand binding: − (“−” indicates less than 50% inhibition at 10 μM)
Human opioid (ORL1); human ORL1 membranes, 10 µM
  A10: inhibition of radioligand binding: − (“−” indicates less than 50% inhibition at 10 μM)

## N=C(N)NCCC(=O)N[C@H]1C(OCc2ccc(Cl)cc2)O[C@H](COCc2ccccc2)[C@@H](O)[C@@H]1OCc1ccc(Cl)cc1 (stereo partly drawn) [compound 525]
Human melanocortin (MC5)
  A5: inhibition of radioligand binding, human melanocortin (MC5): + (“+” indicates greater than 50% inhibition at 10 μM)
Human neurokinin (NK1)
  A8: inhibition of radioligand binding, human neurokinin (NK1): + (“+” indicates greater than 50% inhibition at 10 μM)
Human μ-opioid (MOP)
  A7: inhibition of radioligand binding, human μ-opioid (MOP): − (“−” indicates less than 50% inhibition at 10 μM)
[1]
  A6: inhibition of radioligand binding, human melanin-concentrating hormone (MCH1): + (“+” indicates greater than 50% inhibition at 10 μM)
Human Melanocortin (MC4); 10 µM
  A4: inhibition of radioligand binding, human melanocortin (MC4): + (“+” indicates greater than 50% inhibition at 10 μM)
Mouse urotensin (mUR2)
  A11: inhibition of radioligand binding, mouse urotensin (mUR2): − (“−” indicates less than 50% inhibition at 10 μM)
[2]
  A9: inhibition of radioligand binding, human neuropeptide Y (NPY-Y1): − (“−” indicates less than 50% inhibition at 10 μM)
Human δ-opioid (DOP)
  A1: inhibition of radioligand binding, human δ-opioid (DOP): − (“−” indicates less than 50% inhibition at 10 μM)
Human κ-Opioid (KOP)
  A2: inhibition of radioligand binding, human κ-opioid (KOP): + (“+” indicates greater than 50% inhibition at 10 μM)
Human Melanocortin (MC3)
  A3: inhibition of radioligand binding, human melanocortin (MC3): + (“+” indicates greater than 50% inhibition at 10 μM)
Human opioid (ORL1)
  A10: inhibition of radioligand binding, human opioid (ORL1): − (“−” indicates less than 50% inhibition at 10 μM)

## COC[C@H]1OC(OCc2ccc(-c3ccccc3)cc2)[C@H](NC(=O)CCCNC(=N)N)[C@@H](OCc2ccc(-c3ccccc3)cc2)[C@@H]1O (single isomer, unassigned) [compound 335]
Human melanocortin (MC5)
  A5: inhibition of radioligand binding, human melanocortin (MC5): + (“+” indicates greater than 50% inhibition at 10 μM)
Human neurokinin (NK1)
  A8: inhibition of radioligand binding, human neurokinin (NK1): + (“+” indicates greater than 50% inhibition at 10 μM)
Human μ-opioid (MOP); 10 µM
  A7: inhibition of radioligand binding, human μ-opioid (MOP): + (“+” indicates greater than 50% inhibition at 10 μM)
[1]
  A6: inhibition of radioligand binding, human melanin-concentrating hormone (MCH1): + (“+” indicates greater than 50% inhibition at 10 μM)
Human Melanocortin (MC4)
  A4: inhibition of radioligand binding, human melanocortin (MC4): + (“+” indicates greater than 50% inhibition at 10 μM)
Mouse urotensin (mUR2)
  A11: inhibition of radioligand binding, mouse urotensin (mUR2): − (“−” indicates less than 50% inhibition at 10 μM)
[2]
  A9: inhibition of radioligand binding, human neuropeptide Y (NPY-Y1): − (“−” indicates less than 50% inhibition at 10 μM)
Human δ-opioid (DOP); 10 µM
  A1: inhibition of radioligand binding, human δ-opioid (DOP): + (“+” indicates greater than 50% inhibition at 10 μM)
Human κ-Opioid (KOP)
  A2: inhibition of radioligand binding, human κ-opioid (KOP): + (“+” indicates greater than 50% inhibition at 10 μM)
Human Melanocortin (MC3)
  A3: inhibition of radioligand binding, human melanocortin (MC3): + (“+” indicates greater than 50% inhibition at 10 μM)
Human opioid (ORL1)
  A10: inhibition of radioligand binding, human opioid (ORL1): − (“−” indicates less than 50% inhibition at 10 μM)
